Results: paper PMC5274652, “Antagonizing Retinoic Acid Receptors Increases Myeloid Cell Production by Cultured Human Hematopoietic Stem Cells” (Archivum Immunologiae et Therapiae Experimentalis, 2016)

How the values were obtained:
[1] = test system: zebra fish embryos; parameters: method as in Wai et al. 2015; details: 10 nM, ref Wai et al. 2015; cited from earlier work
[2] = target: T1, RARα (Homo sapiens, UniProt P10276)
T1 sequence (P10276 183-417 limits assumed): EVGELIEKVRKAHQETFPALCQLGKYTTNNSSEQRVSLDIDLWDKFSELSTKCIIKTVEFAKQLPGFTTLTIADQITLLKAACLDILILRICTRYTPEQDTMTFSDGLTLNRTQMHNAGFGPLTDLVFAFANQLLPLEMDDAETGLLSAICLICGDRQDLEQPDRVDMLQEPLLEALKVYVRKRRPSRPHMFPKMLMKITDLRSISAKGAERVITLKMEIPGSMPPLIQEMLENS
Excerpt: (§1) For transactivation studies, we used CV-1 kidney fibroblast cells and LNCaP prostate adenocarcinoma cells that can be readily and reproducibly transfected with plasmids and reporters. Transactivation assays using CV-1 cells were undertaken essentially as described previously (Nagpal et al. [1995]). Briefly, CV-1 cells were transiently transfected with a plasmid-containing ERE-tk-Luc promoter-reporter construct using Lipofectamine as described in the manufacturer’s protocol (Fisher Scientific, Loughborough, UK). ERE-tk-Luc transcript comprises a luciferase reporter under control of an estrogen receptor response element. The cells were also transiently transfected with expression vector encoding a fusion protein containing the ligand-binding domain of RARα, RARβ, or RARγ fused to an estrogen receptor DNA-binding domain. Twenty-four hours after transfection, the cells were treated with retinoids under test for 16 h in culture medium-containing 2.5 % charcoal-treated FBS and lysed for determination of luciferase and β-galactosidase activities. Luciferase activity was measured using the Dual-Luciferase Reporter 100 Assay System (Promega, Southampton, UK), and β-galactosidase activity was determined by colorimetric assay. The reporter activity was normalized against β-galactosidase activity. […]

[3] = target: T2, RARβ (Homo sapiens, UniProt P10826); experiment: Retinoid receptor transactivation assay in transfected CV-1 cells, RARβ; assay type: cell-based
T2 construct: expressed in transfected cells; host or cells: CV-1 kidney fibroblast cells
T2 sequence (P10826 183-417 limits assumed): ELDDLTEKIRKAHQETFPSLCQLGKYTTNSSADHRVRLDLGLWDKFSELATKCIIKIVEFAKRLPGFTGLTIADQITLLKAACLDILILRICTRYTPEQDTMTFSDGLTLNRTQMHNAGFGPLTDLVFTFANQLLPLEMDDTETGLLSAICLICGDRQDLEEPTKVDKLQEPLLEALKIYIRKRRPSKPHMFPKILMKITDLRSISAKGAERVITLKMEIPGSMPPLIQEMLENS
Excerpt: as §1

[4] = target: T3, RARγ (Homo sapiens, UniProt P13631); experiment: Retinoid receptor transactivation assay in transfected CV-1 cells, RARγ; assay type: cell-based
T3 construct: expressed in transfected cells; host or cells: CV-1 kidney fibroblast cells
T3 sequence (P13631 185-419 limits assumed): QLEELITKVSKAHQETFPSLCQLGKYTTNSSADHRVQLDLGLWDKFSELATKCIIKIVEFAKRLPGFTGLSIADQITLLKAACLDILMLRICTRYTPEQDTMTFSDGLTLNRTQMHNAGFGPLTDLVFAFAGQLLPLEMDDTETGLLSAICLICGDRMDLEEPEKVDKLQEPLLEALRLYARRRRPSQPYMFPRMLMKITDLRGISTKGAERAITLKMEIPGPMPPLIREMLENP
Excerpt: as §1

[5] = test system: NB-4 cells; experiment: Differentiation of NB-4 cells (CD11b/CD14 flow cytometry); assay type: cell-based, human; details: NB-4 cells, 96 h
Procedure: (§2) NB-4 and KG1 cells were obtained from the German Resource Center for Biological Material (DSMZ GmbH, Braunschweig, Germany). The cells were grown in RPMI-1640 medium supplemented with 10 % fetal bovine serum (FBS), 100 U/ml penicillin, and 100 µg/ml streptomycin (Sigma, St Louis, MO, USA). Cells were grown at 37 °C in 5 % CO2.
(§3) The expression of differentiation markers at the cell surface was determined by flow cytometry. Differentiation of NB-4 and KG1 cells was measured by staining using the monoclonal antibodies CD11b-FITC and CD14-PE and appropriately labeled isotype controls (all from ImmunoTools, Friesoythe, Germany). Differentiation of human CD34^+ve cells was measured by triple-color staining using various cocktails of phycoerythrin-, fluorescein isothyocyanate-, and PerCP-monoclonal antibodies (from Becton–Dickinson, San Jose, CA, USA). The markers used to identify cell populations were as follows: CD45^+ve leukocytes; CD34^+ve/CD133^+ve HSCs; CD33^+ve/CD13^+ve immature myeloid; CD117^+ve myeloblasts and promyelocytes; CD11b^+ve/CD15^+ve mature myeloid; CD11b^+ve/CD65^+ve neutrophils; CD11b^+ve/CD14^+ve monocytes; glycophorin^+ve A erythroid cells; CD61^+ve megakaryoblasts and platelets; CD2^+ve/CD5^+ve/CD7^+ve T cells and NK cells; CD56^+ve NK cells; CD19^+ve/CD20^+ve B cells; and CD10^+ve B lymphocyte progenitors; and present on mature neutrophils and DR^+ve progenitors and present on mature monocytes. The cells were stained with 1 µl of the fluorescently labeled antibody (or the appropriate control immunoglobulin) for 1 h on ice. Next, they were washed with ice-cold phosphate-buffered saline (PBS) and suspended in 0.5 ml PBS supplemented with 0.1 % bovine serum albumin (Sigma, St Louis, MO, USA) prior to analysis on FACS Calibur flow cytometer (Becton–Dickinson, San Jose, CA, USA). The acquisition parameters were set for an isotype control. Cells were analyzed using a FACSCalibur, and data analysis was performed using the CellQuest Pro software (Becton–Dickinson, San Jose, CA, USA).

[6] = test system: KG1 cells; experiment: Differentiation of KG1 cells (CD11b/CD14 flow cytometry); assay type: cell-based, human; details: KG1 cells, 1 μM combined with 10 nM 1,25D, 96 h
Procedure: as §2, §3

SMILES | effect on stem cell populations and development [1] | concentration required to activate RARα (reporter assays) ([2]; discussion, order of magnitude) | ATRA concentration at which maximal effect on RARα transactivation is observed ([2]; transfected CV-1 cells) | ATRA concentration of maximal activation, RARβ [3] | concentration at which RARγ is activated (reporter assays) ([4]; discussion, order of magnitude) | ATRA concentration of maximal activation, RARγ ([4]; transfected CV-1 cells) | CD11b+ve/CD14+ve cells (monocyte differentiation) ([5]; 1 μM combined with 10 nM 1,25D) | CD11b+ve/CD14+ve cells (monocyte differentiation) ([5]; 1 μM, alone) | CD11b+ve/CD14+ve cells (monocyte differentiation) [6] [%]
CC1(C)CCC(C)(C)c2cc(/C(=N\O)c3cc4cc(C(=O)O)ccc4[nH]3)ccc21 [AGN205327] | Stem cell populations were maintained at the expense of the development of bones and neural ganglia | – | – | – | – | – | – | – | –
CC1=C(/C=C/C(C)=C/C=C/C(C)=C/C(=O)O)C(C)(C)CCC1 [ATRA, all-trans retinoic acid] | – | ~10^−8 M | ~10^−7 M | ~ 5 × 10^−9 M | ~10^−10 M | ~ 5 × 10^−9 M | ~ 36% | ~ 10% | 26
